The text below walks through data of BindingDB's records for patent US20230382889 (Volastra Therapeutics, 2023).

This assay has as its target T1, Kinesin-like protein KIF18A (Homo sapiens, UniProt Q8NI77).
T1 sequence (Q8NI77 whole entry): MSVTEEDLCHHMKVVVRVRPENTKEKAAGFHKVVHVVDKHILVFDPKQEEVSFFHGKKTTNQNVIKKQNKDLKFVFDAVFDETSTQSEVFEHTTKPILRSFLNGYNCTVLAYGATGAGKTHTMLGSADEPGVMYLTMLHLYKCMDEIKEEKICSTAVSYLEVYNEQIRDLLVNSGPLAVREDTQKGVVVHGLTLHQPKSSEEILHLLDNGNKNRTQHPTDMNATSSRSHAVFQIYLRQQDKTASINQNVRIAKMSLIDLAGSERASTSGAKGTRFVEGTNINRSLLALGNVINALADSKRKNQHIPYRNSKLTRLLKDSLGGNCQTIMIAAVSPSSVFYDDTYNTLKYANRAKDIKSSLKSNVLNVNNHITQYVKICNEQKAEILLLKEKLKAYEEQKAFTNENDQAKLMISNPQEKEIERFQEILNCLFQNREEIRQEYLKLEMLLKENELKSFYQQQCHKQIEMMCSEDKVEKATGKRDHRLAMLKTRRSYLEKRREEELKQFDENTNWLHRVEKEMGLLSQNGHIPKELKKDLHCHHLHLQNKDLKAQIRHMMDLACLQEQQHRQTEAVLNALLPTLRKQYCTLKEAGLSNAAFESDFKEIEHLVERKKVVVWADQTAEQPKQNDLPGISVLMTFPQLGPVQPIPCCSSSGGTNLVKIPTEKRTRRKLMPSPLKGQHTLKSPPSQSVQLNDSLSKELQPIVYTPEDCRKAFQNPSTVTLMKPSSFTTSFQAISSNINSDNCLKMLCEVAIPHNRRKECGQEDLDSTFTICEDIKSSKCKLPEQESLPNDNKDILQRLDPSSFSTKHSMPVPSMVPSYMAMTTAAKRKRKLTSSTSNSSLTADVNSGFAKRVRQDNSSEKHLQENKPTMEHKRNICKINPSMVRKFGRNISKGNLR
The assay can be described thus: Inhibition of KIF18A Microtubule-Dependent ATPase Activity. As for the experimental part: IC50 values were calculated from concentration vs. % Inhibition data via a four-parameter variable slope model.

Consider `O=S(=O)(CCO)Nc1cc(N2CCC3(CC2)CC3)c(-c2cn(-c3ccc(F)c(S(=O)(=O)N4CC(F)(F)C4)c3)nn2)cn1` [US20230382889, Compound 112], for which the IC50 (usually the concentration needed to halve the response being measured) was 77 nM.
